# Measured values published in paper PMC5073322, “Novel Natural Product-like Caged Xanthones Bearing a Carbamate Moiety Exhibit Antitumor Potency and Anti-Angiogenesis Activity In vivo” (Scientific Reports, 2016).
# Columns and labels:
# [1] = Water solubility by HPLC; assay type: physicochemical; conditions: deionized water, stirred overnight, HPLC 290 nm
# From the text: The physicochemical characteristics of compounds directly determine their potential drug-like properties. Assessing a compound’s physicochemical properties before performing in vivo evaluations can guide further studies and minimize the time and cost associated with drug discovery. Therefore, parallel to the in vivo study, these solubilities of these compounds in water were experimentally measured using high-performance liquid chromatography (HPLC). Based on the results of full wave scanning, 290 nm was chosen as the maximum absorption wavelength for HPLC detection.
# A HPLC system with an ultraviolet (UV) detector was used to detect the solubility of the compounds. The optimal wavelength was 290 nm. Ethanol/water (85:15) was an efficient eluent at a flow rate of 0.5 mL/min. The compounds were stirred in deionized water overnight to maximize the retention of the compounds in solution. Then, the solutions were filtered and the supernatant was used as a fluid sample for HPLC detection. The permeability (Pe) of some of the compounds was tested with the help of a standard PAMPA (pION), as previously reported. PAMPA was performed on a PAMPA Explorer instrument (pION, Inc., Woburn, MA) with the PAMPA Explorer command software (Version 3.7.4.1). The compounds were diluted to 10 mM with the system solution buffer (pH 7.4). Then, 150 μL of the diluted compound solution was transferred to a UV plate, and the UV spectrum was collected and used as a reference. Then, paint the membrane with 5 μL of gastrointestinal tract (GIT) lipid. The acceptor chamber was filled with 200 μL of acceptor solution buffer, and the donor chamber was filled with 200 μL of diluted compound solution. The PAMPA sandwich was assembled and left at 25 °C for 4 h. The UV spectra (240–500 nm) from the donor and the acceptor were collected. The permeability coefficient was calculated with the PAMPA Explorer Command software (Version 3.7.4.1) based on the area under the curve (AUC) of the reference plate, the donor plate, and the acceptor plate. The permeability coefficient of the compound was tested for four times, and the data are shown as the average values. Ketoprofen (4.5×10^−6 cm/s) and propranolol (112.8×10^−6 cm/s) were used as the standards in this assay.
# [2] = system: HepG2 cells; assay: Annexin V/PI apoptosis, flow cytometry; assay type: cell-based, human; conditions: 48 h
# Experimental: First, the influence of 8n on the cytoskeleton was evaluated using morphological observations. After treatment with 8n, the morphological features of tumour cells changed greatly, and the changed characteristics included the rounding-up of cells, rough membrane surfaces, and more spherical or ovoid cytoplasmic fragments (Fig. 6A). However, the control group, which lacked compound 8n, had good growth. Next, we examined whether the morphological changes were the result of apoptosis induced by compound 8n using DAPI staining and FACScan.
# Figure 6 (A) Morphological changes in cancer cells and nuclei. (B) 8n induced apoptosis in HepG2 cells. […] The cells were then were stained with DAPI and observed by fluorescence microscopy. […] (D) The percentages of early apoptotic and total apoptotic cells were quantified using flow cytometry. *p < 0.05; **p < 0.01. […] The expression levels of Caspase-3, Cleaved Caspase-3, Bax, Bcl-2, PARP and cleaved PARP were measured by Western blotting. […]
# HepG2 cells were grown on glass coverslips and fixed in 4% paraformaldehyde. […] 8n-induced apoptosis was assessed using a fluorescence microscope and the Annexin V-FITC apoptosis Detection Kit (Beyotime Biotechnology, Shanghai, China) according to the manufacturer’s instructions. […] Stained cells were analysed with a FACScan analyser (argon laser, Becton Dickinson, USA). All data were analysed by using the FlowJo software.
# [3] = system: Hsp90 client proteins in HepG2 cells; assay: Western blot of Hsp90 client proteins; assay type: cell-based, human; conditions: HepG2, 24 h
# Experimental: Figure 9 (A) The caged compounds (50 μM) inhibited the Hsp90 ATPase activity in a HTRF-based inhibition assay. (B) The IC50 values for the inhibition of Hsp90 ATPase by 8n, 8o and GA as detected by the HTRF Transcreener ADP kit. The test compounds were diluted to obtain a range of concentrations and incubated with Hsp90 and ATP. The amount of ADP generated was detected. (C) Western blots of the Hsp90 client proteins after HepG2 cells were treated with the indicated concentrations of 8n for 24 h. (D) The mRNA expression of VEGF was determined by real-time quantitative reverse-transcriptase polymerase chain reaction (RT-PCR) and analysed by the delta Ct method. The bars represent the means with standard error of the mean (SEM) and the fold change in the VEGF/GAPDH ratio relative to the vehicle-treated group. The different significance levels are indicated as **P < 0.05.
# The influence of 8n on the degradation of Hsp90 client proteins was monitored by WB analysis. HepG2 cells were treated with different concentrations of 8n for 24 h. […] HIF-1α, as a key modulator of angiogenesis and an important client protein of Hsp90, was also examined, and the expression of HIF-1α decreased after treatment with 8n.
# The cells were washed with PBS and lysed with ice-cold lysis buffer supplemented with protease inhibitors (Roche) for 30 min. The protein content of the supernatants of lysates was determined using a bicinchoninic acid assay. Equal 50 μg total protein samples were separated by sodium dodecyl sulphate polyacrylamide gel electrophoresis (SDS−PAGE) and then transferred onto PVDF membranes (Millipore) at 90 volts for 90 mins. After blocking the membrane with 5% skim milk for 1 h at RT, the membranes were incubated with the primary antibody overnight at 4 °C. Then, the membranes were incubated with a DyLight 800-labeled secondary antibody in the dark for 1 h. Detection of specific proteins was performed with the Odyssey infrared imaging system (LI-COR, Lincoln, Nebraska, USA).
# [4] = system: A549; assay: MTT antiproliferative assay, A549; conditions: read-out: IC50 A549; MTT, 72 h
# Experimental: The inhibition of tumour cell growth was measured by a modified tetrazolium (MTT) salt assay, as previously described[39]. Cells were cultured in a 96-well plate and treated with culture medium alone or different concentrations of the compounds. The cells were incubated for 72 h, and then, the MTT assay reagent was added. After a 4 h incubation, the formazan product was quantitated at 570 nm. The IC50 values (the concentrations that gave rise to 50% inhibition of cell viability) were calculated using GraphPad Prism 6 using a variable slope (four parameters).
smiles,measurement,setting,value
CC(C)=CCC12OC(C)(C)C3CC(C=C4C(=O)c5c(OC(=O)N6CCC(N7CCCCC7)CC6)cccc5OC431)C2=O (stereo not shown) [Compound 8n],"S, water solubility",[1],>40 mM
same,apoptotic cells,[2]; 0.3 μM,more than 11.89%
same,apoptotic cells,[2]; 1 μM,> 46.3%
same,"expression levels of client proteins HER-2, Akt and Erk1/2",[3],dramatically reduced
same,expression of HIF-1α,[3],decreased
same,expression of Hsp70,[3],changed little
same,IC50,[4],7.23 ± 0.56 µM
